This series can be described thus: RP, Restek Raptor Biphenyl, 100 × 2.1 mm, 2.7 µm, 50 °C, 0.4 mL/min, estimated dead time 0.55 min; A: water + 0.1% formic acid, pH 3; B: methanol + 0.1% formic acid, pH 3; gradient (min/%B) 0/5 1.12/5 6.41/99.5 10.01/99.5. As to conditions: stereoisomer not certain.

Structures can show the parent of a compound that is named as a salt.

In the case of `O=C(O)CC[C@H](O)C(=O)O` [L-α-Hydroxyglutaric acid disodium salt], the LC retention time was 0.746 min.

For `CCCCCC/C=C/CCCCCCCCCC(=O)O` [trans-Vaccenic Acid], the LC retention time is 6.61 min.

On to `CC(=O)OCC(=O)C1(O)CCC2C3CCC4=CC(=O)CCC4(C)C3C(O)CC21C` (stereo not drawn) [CORTISOL 21-ACETATE], for which the LC retention time was 5.88 min.

Consider `CC(C)CCCCCCCCCCCCCC(=O)O` [15-Methylpalmitic acid], for which the LC retention time is 6.58 min.

`O=C(O)c1cc(=O)c2ccccc2[nH]1` [Kynurenic acid]: the LC retention time is 3.58 min.

Turning to `O=c1cccc(O)[nH]1` [2,6-DIHYDROXYPYRIDINE], the LC retention time was 3.3 min.

As to `O=C(O)Cc1ccccc1` [PHENYLACETATE], the LC retention time is 2.46 min.

`CCCCCCCCCCCC(=O)OC(CC(=O)[O-])C[N+](C)(C)C` [Lauroyl-L-carnitine]: the LC retention time is 5.46 min.

Regarding `CCCCCCCCCCCCCCCCCCCCCCCCCCCC(=O)O` [Octacosanoic acid], the LC retention time was 7.08 min.

In the case of `O=C(O)CCCC(O)C(=O)O` (racemic) [Disodium (2RS)-2-hydroxyadipate], the LC retention time was 1.03 min.

Turning to `CC1(C(=O)Nc2ccc(O)c(Cl)c2Cl)CCCCC1` [Fenhexamid], the LC retention time is 5.83 min.

In the case of `CCC=CCC=CCC=CCC=CC/C=C\CCCC(=O)O` [cis-5,8,11,14,17-Eicosapentaenoic acid], the LC retention time was 6.56 min.

Regarding `CC1(c2ccc(Oc3ccccc3)cc2)OC(=O)N(Nc2ccccc2)C1=O` (stereo not drawn) [Famoxadone], the LC retention time is 6.68 min.

`CC(C)C(=O)C(=O)O` [α-Keto Isovaleric Acid Sodium Salt]: the LC retention time was 1.26 min.

In the case of `CC(C)(C)C(O)C(=Cc1ccc(Cl)cc1Cl)n1cncn1` (stereo not drawn) [Diniconazole], the LC retention time is 6.05 min.

For the molecule `CCCC[n+]1cccc(S(=O)(=O)[O-])c1` [C4-APS], the LC retention time was 2.67 min.

Take `CC(=O)NC(C)C(=O)O` (stereo not drawn) [N-ACETYLALANINE]: the LC retention time is 1.05 min.

In the case of `CC(C)C1CCC(Cc2ccc(Cl)cc2)C1(O)Cn1cncn1` (stereo not drawn) [Ipconazole], the LC retention time is 6.21 min.

With `CCCCCCCCC=CCCCCCCCCCCCC(=O)O` [Erucic acid], the LC retention time is 6.84 min.

With `CSCC1OC(n2cnc3c(N)ncnc32)C(O)C1O` (stereo not drawn) [METHYLTHIOADENOSINE], the LC retention time is 3.18 min.

For the molecule `CCC(C)CCCCCCCCCCCCC(=O)O` (stereo not drawn) [14-Methylhexadecanoic acid], the LC retention time is 6.58 min.

Turning to `CCCCCCCCCCCCCC[n+]1cccc(S(=O)(=O)[O-])c1` [C14-APS], the LC retention time was 6.1 min.

Take `CCCCCC[n+]1cccc(S(=O)(=O)[O-])c1` [C6-APS]: the LC retention time is 3.92 min.

With `O=C(O)CC(O)C(=O)O` (stereo not drawn) [MALATE], the LC retention time is 0.676 min.

On to `CNC(=O)c1cc(Cl)cc(C)c1NC(=O)c1cc(Br)nn1-c1ncccc1Cl` [Chlorantraniliprole], for which the LC retention time was 5.84 min.

For the molecule `CCCCCCCCCCCCCCCCCCCCCCC(=O)O` [Tricosanoic acid], the LC retention time was 6.91 min.

Turning to `CCCCCC=CCC=CCC=CCC=CCC=CCCC(=O)O` [all-cis-4,7,10,13,16-Docosapentaenoic acid], the LC retention time was 6.7 min.

In the case of `O=c1cc[nH]c(=O)[nH]1` [URACIL], the LC retention time is 0.702 min.

As for `CC(CCC(=O)NCCS(=O)(=O)O)C1CCC2C3C(O)CC4CC(O)CCC4(C)C3CC(O)C12C` (stereo not drawn) [Taurocholic acid sodium salt hydrate], the LC retention time was 5.83 min.

Take `O=C(O)Cc1c[nH]c2ccccc12` [3-Indoleacetic acid]: the LC retention time is 4.19 min.

As to `CC(C)(C)N(NC(=O)c1ccc(Cl)cc1)C(=O)c1ccccc1` [Halofenozide], the LC retention time is 5.6 min.

`C=CCNC(=O)c1c([Si](C)(C)C)sc(C)c1C` [Silthiofam]: the LC retention time is 6 min.

Consider `CC(C)CCCCCCCCCCCCCCC(=O)O` [Isostearic acid], for which the LC retention time is 6.67 min.

On to `C=CC(=O)O` [2-PROPENOATE], for which the LC retention time is 0.959 min.

Turning to `CCC[n+]1cccc(S(=O)(=O)[O-])c1` [C3-APS], the LC retention time was 1.67 min.

For the molecule `Cc1cc2nc3c(=O)[nH]c(=O)nc-3n(CC(O)C(O)C(O)CO)c2cc1C` (stereo not drawn) [RIBOFLAVIN], the LC retention time was 4.45 min.

Regarding `CC(=O)Oc1ccccc1` [PHENYL ACETATE], the LC retention time is 2.46 min.

`CC(CC(=O)O)CC(=O)O` [3-Methylglutaric acid]: the LC retention time is 2.43 min.

Take `CCCCCCCCCCCCCCCCCCCC(=O)O` [Arachidic acid]: the LC retention time was 6.68 min.

For the molecule `O=C(O)CNC(=O)c1ccccc1` [HIPPURATE], the LC retention time was 3.44 min.

Take `CC(=O)NCCc1c[nH]c2ccc(O)cc12` [N-ACETYLSEROTONIN]: the LC retention time is 3.58 min.

For the molecule `CC(=O)NC(CC(N)=O)C(=O)O` (stereo not drawn) [N-ACETYLASPARAGINE], the LC retention time was 0.702 min.

Regarding `CC(CCC(=O)O)C1CCC2C3C(OS(=O)(=O)O)CC4CC(O)CCC4(C)C3CC(O)C12C` (stereo not drawn) [Cholic acid 7-sulfate], the LC retention time is 5.85 min.

For the molecule `CC1NC(=O)NC1CCCCCC(=O)O` (stereo not drawn) [DETHIOBIOTIN], the LC retention time was 4.21 min.

As to `CC(C)CCCCCCCCCCCCC(=O)O` [Isopalmitic acid], the LC retention time is 6.54 min.

Consider `CC(CCC(=O)O)C1CCC2C3CCC4CC(O)CCC4(C)C3CC(O)C12C` (stereo not drawn) [Deoxycholic acid], for which the LC retention time is 6.37 min.

Consider `Cc1ncc2c(c1O)C(=O)OC2` [4-Pyridoxolactone], for which the LC retention time is 2.25 min.

For the molecule `O=C(O)CCCc1c[nH]c2ccccc12` [Indole-3-butyric acid], the LC retention time is 4.97 min.

As to `O=C(O)C=Cc1cnc[nH]1` [4-Imidazoleacrylic acid], the LC retention time is 0.718 min.

Take `CC(=O)NCCCC(=O)O` [4-ACETAMIDOBUTANOATE]: the LC retention time was 1.42 min.

For the molecule `CCN(Cc1ccc(Cl)nc1)C(=C[N+](=O)[O-])NC` [Nitenpyram], the LC retention time was 3.63 min.

For the molecule `O=C(O)CCC(=O)O` [Succinic acid], the LC retention time is 0.909 min.

Turning to `Nc1nc2ncc(CNc3ccc(C(=O)NC(CCC(=O)O)C(=O)O)cc3)nc2c(=O)[nH]1` (stereo not drawn) [FOLATE], the LC retention time is 3.67 min.

As for `CC(CC(=O)O)C1CCC2C3CCC4CC(O)CCC4(C)C3CC(O)C12C` (stereo not drawn) [Nor-Desoxycholic Acid], the LC retention time was 6.24 min.

For `CSCCC(O)C(=O)O` (stereo not drawn) [2-HYDROXY-4-(METHYLTHIO)BUTANOATE], the LC retention time is 2.51 min.

For `O=C(O)c1ccc(O)cc1` [4-HYDROXYBENZOATE], the LC retention time was 0.822 min.

As to `CCCCC[n+]1cccc(S(=O)(=O)[O-])c1` [C5-APS], the LC retention time was 3.33 min.

Consider `CCCCCCCCCCCCCC(=O)OC(CC(=O)[O-])C[N+](C)(C)C` [Myristoyl-L-carnitine], for which the LC retention time was 5.74 min.

The values are drawn from the RepoRT retention time repository.
